Reference: a melting point compilation (Tetko et al.; mined from patent text by program, amines drawn as free bases though some values may be those of a salt)

melting point [°C]	SMILES
127 to 129	COC(=O)c1ccc2sc3ccccc3c2c1
107 to 114	C#CCn1c(=O)n(CC=C)c(=O)n(-c2cc(N3C(=O)C4=C(CCCC4)C3=O)c(F)cc2Cl)c1=O
247 to 249	O=C1CCC(N2C(=O)c3cccc(OCc4cc5ccccc5s4)c3C2=O)C(=O)N1 (stereo not given)
> 300	O=c1[nH]nc2c3c(cccc13)N=CN2
363 to 365	NC(=O)c1nc(-c2cccc(O)c2)nc2c1[nH]c(=O)n2CC1CCOCC1
98 to 99	CS(=O)c1nnc(-c2ccc3occ(-c4cccc(OC(F)(F)F)c4)c3c2)o1 (stereo not given)
168 to 170	COC(=O)[C@H](Cc1ccc(N2C(=O)c3ccc(Br)cc3C2=O)cc1)NC(=O)OC(C)(C)C
169	O=C1[C@@H]2CCCN2C(=O)N1c1cc(Cl)cc(Cl)c1
263 to 267	CCNC(=O)c1ccc(N2CCN(Cc3cnc4c(c3)[nH]c(=O)n3cccc43)CC2)c(F)c1
118 to 122	Nc1cccc(C2=NNC(=O)Cc3cc4c(cc32)OCO4)c1
204 to 205	CS(=O)(=O)Nc1cc2c(c(C(=O)O)c1)NCCCC2
162 to 163	Cc1oc(-c2ccccc2)nc1COc1ccc(CC2SC(=O)NC2=O)cc1 (stereo not given)
230 to 233	N#Cc1ccc2nc(C(=O)NCc3ccnc(OCC4CCOC4)c3)[nH]c(=O)c2c1 (stereo not given)
94 to 95	CN(C)S(=O)(=O)Oc1c(I)cc(C(C)(C)C)cc1CN
66 to 67	Cc1cccc(CON2C(C)(C)CC(O)CC2(C)C)c1
108 to 110	COc1cc(N)c2nccc(C)c2c1OC
169	CC(C)(CCC(=O)N[C@H](Cc1ccccc1)C(=O)NCCCCNC(=N)N)C(=O)O
139 to 142	O=c1oc(-c2ccc(OCCCc3ccccc3)cc2)cc(O)c1SCCc1ccccc1
96 to 98	CCOC(=O)C1(NS(=O)(=O)c2ccc(F)cc2)CCCCC1
88 to 88.5	COc1cc([N+](=O)[O-])ccc1-c1cccc(C(=O)OC(C)(C)C)c1
43 to 46	CSC1(CC(=O)O)CCC1
202 to 205	CCn1c(C(C#N)c2cc(C)cc(C#N)c2)c(C(C)C)c(=O)n(COC)c1=O (stereo not given)
186 to 188	Cc1c(CC(=O)O)c(=O)oc2cc(C3OC(CO)C(O)C(O)C3O)ccc12 (stereo not given)
117 to 119	Fc1cc(CC2(Cc3ccncc3)c3ccccc3-c3sccc32)ccn1 (stereo not given)

melting point [°C]	SMILES
68 to 70	O=C(OI(OC(=O)C(F)(F)F)C(F)(F)C(F)(F)C(F)(F)C(F)(F)C(F)(F)C(F)(F)C(F)(F)F)C(F)(F)F
111 to 112	CCN1CCCN(c2cc(Cl)ccc2C)C1=S
59	CCCCCNC(=O)N(C)c1cccc(-c2ccc(C=C(OCC)C(=O)O)cc2OCCCC)c1
104 to 105	Nc1nc(-c2ccccc2)cc(C2CCN(C(=O)c3ccccc3)CC2)n1
155 to 156	Cc1ccc(C(=O)Cc2nnnn2C)c(N)c1
190 to 195	CC(=S)NC[C@H]1CN(c2ccc3c(c2)CCCc2cn[nH]c2-3)C(=O)O1
155	O=C1Nc2ccc(F)cc2C(C#Cc2ccccn2)(C(F)(F)F)N1 (racemic)
125 to 127	CCCCCC(=O)NCCCC(=NNC(N)=S)c1ccccc1
166 to 167	NC(=O)c1ccc(N[C@H]2CC[C@H](N)CC2)cc1F
128 to 129	CCN1CC2CCCC2C1CNC(=O)c1cc(Cl)c(N)cc1OC (stereo not given)
271 to 273	O=C(O)c1cn([C@@H]2C[C@@H]2F)c2c(F)c(N3C[C@@H]4CCCN[C@@H]4C3)c(F)cc2c1=O
60 to 62	CCCCc1oc2ccccc2c1C(O)c1ccc(-c2cc(Br)c(O)c(Br)c2)cc1 (stereo not given)
106 to 108	Cc1ccccc1C(=O)N1CCC(=O)c2ccc(Cl)cc21
196 to 199	O=C(/C=C/c1ccc(C(F)(F)F)cc1-c1cccnc1)Nc1cnc2ccccc2c1
214	Cc1[nH]c(=S)n(Nc2cccc([N+](=O)[O-])c2)c1-c1ccccc1
150 to 152	CCC(C)(C)c1ccc(OCC(=O)Nc2ccc(Nc3cccc(O)c3)cc2)c(C(C)(C)CC)c1
150 to 151	CNC(=O)N(C)c1cc(C(C)(C)C)on1
62	Nc1ccc(Cl)cc1NCC1CCCCC1
175 to 178	CC(C(=O)NC(C)(C)C)c1cc(Cl)ccc1C(=O)O (stereo not given)
304 to 306	O=C(O)c1ccc2c(c1)Sc1ccc([N+](=O)[O-])cc1C=C2
89	CC(=O)OCCCN1CCC(CNC(=O)[C@@H]2CCCN2S(=O)(=O)c2ccc(Cl)c(COc3cccc4c(-n5cccn5)cc(C)nc34)c2Cl)CC1
139 to 145	CN(Cc1ccccc1)C1(CNC(=O)c2ccc(Cl)c(Cl)c2)CCCCC1
65 to 67	CCOC(=O)c1csc(C=O)n1
102 to 104	Cn1ncc(SCc2ccccc2)c(Cl)c1=O

melting point [°C]	SMILES
193 to 194	COc1ccc(CCOc2ccnc(-c3cccc(C(=O)O)c3)n2)cc1OC
176 to 178	CCc1c(-c2cc(C)c(O)c(C)c2)[nH]c2ccc(OC)cc12
233 to 234	N#CCCNC(=O)Cc1c(C(=O)c2ccccc2)[nH]c2cc(Cl)ccc12
136 to 137	Nc1cc(OC(=O)Oc2cc(N)c(F)cc2Cl)c(Cl)cc1F
123 to 124	CC(C)(C)[Si](C)(C)CCCSCCNC(=O)n1cc(F)c(=O)[nH]c1=O
48 to 50	OC[C@H]1O[C@@H]1c1cc(F)cc(F)c1
258	CN(C)C1CCN(c2ccc(-c3[nH]nc4c3C(=O)c3c(NC(=O)NN5CCOCC5)cccc3-4)cc2)CC1
124 to 132	O=S(CCO)CCC(c1cc(F)ccc1F)S(=O)(=O)c1ccc(Cl)cc1 (stereo not given)
218 to 221	COc1cc2c(Nc3cccc(C)c3)ncnc2cc1OC(C)C
134	O=C1CCC(O)(c2nc3ccccc3s2)CC1
40 to 41	ClCn1cnc(Cl)c1Cl
68 to 70	CO/C=C(\C(=O)OC)c1ccccc1C
77 to 81	Cc1ccc(Cl)c(-c2ccc(S(=O)(=O)N3c4ccccc4CC3C(=O)NCCOc3ccc(CC(=O)O)cc3)cc2)c1 (stereo not given)
176 to 180	COC(=O)[C@H]1NC(=O)[C@H]1NC(=O)Cc1ccccc1 (relative stereo)
107 to 112	C=CCNc1cc2c(c3ccccc13)C(CCl)CN2C(=O)c1cc2cc(OC)c(OC)c(OC)c2[nH]1 (stereo not given)
41 to 42	N#CCNCCNCC#N
221	CCc1noc(-c2ncn3c2c(=O)n(CC)c2ncccc23)n1
173 to 174	CC1(C)CCc2c(N3CCCC3)nc3sc4c(NCCN5CCOCC5)ncnc4c3c2C1
84 to 86	CC(=O)CN1CCNC1=Nc1c(Cl)cccc1Cl
202 to 204	Cc1cc([N+](=O)[O-])ccc1NC(=O)c1cc(C(C)(C)C)ccc1O
163 to 165	CCOc1cc(C(CC#N)N2C(=O)c3ccc4ccccc4c3C2=O)ccc1OC (stereo not given)
140 to 141	CCS(=O)(=O)c1cc(C(=O)NCC2CCCN2CC2CCCC2)c(OC)cc1N (stereo not given)
> 250	Nc1c(N=O)c(=O)n(CC2CCCCCC2)c(=O)n1CC1CCCCCC1
169 to 170	O=C(Nc1ccc([N+](=O)[O-])cc1)N1CC=CCC1

melting point [°C]	SMILES
158 to 160	CCNC(=O)N(O)C(c1ccccc1)c1cc(C(C)(C)C)c(O)c(C(C)(C)C)c1 (stereo not given)
61 to 64	COc1ccc(-c2ccc(C#N)o2)cc1C(F)(F)F
146 to 147	Cc1c(Cc2cccc(C(F)(F)F)c2)sc2c(-c3cc(F)cc(C(N)=O)c3)cccc12
132 to 135	O=C(NCC(=O)N1c2ccccc2N(Cc2ccccc2)C(=O)[C@H]2CCC[C@H]21)c1ccccc1[N+](=O)[O-] (relative stereo)
124 to 126	c1ccc(-c2cc3ccccc3s2)nc1
> 300	CC1CC(=O)NN=C1c1ccc(NC2=CC(=O)CC2)cc1 (stereo not given)
133 to 137	CCc1cc(N)cc(CC)n1
210 to 212	COC(=O)c1ccc(Cc2cn(C)c3ccc(NC(=O)NC4CCCC4)cc23)c(OC)c1
143 to 145	Cc1ccc(-c2ccc3c(c2)C=C(C(=O)Nc2ccc(CN(C)C4CCOCC4)cc2)CO3)cc1
198 to 200	CCn1cc(C)c2cnc(NC(=O)c3ccc(C(C)(C)O)cc3)cc21
214 to 216	COc1ccc(-c2cc(C#N)c3cc(O)ccc3c2)cc1F
164 to 168	CCCc1nc2c(N)nc3cc(OCCCNS(=O)(=O)CCc4cccc5ccccc45)ccc3c2n1CC(C)C
189 to 190	Cn1c(Cc2c(F)cccc2F)nnc1C(N)=O
81	O=c1sc(CO)c(C(F)(F)F)n1CC=C(Cl)Cl
188 to 190	C=CCC12CC(=O)N(C)C1(O)CCc1ccc(OCc3ccccc3)cc12 (stereo not given)
167 to 174	CNC1C(O)CC2C3CCC4CC(=O)CCC4(C)C3CCC21C (stereo not given)
81.1	CCOn1nnc2ccc(C(C)n3ccnc3)cc21 (stereo not given)
251 to 254	CCOc1ccc([N+](=O)[O-])cc1-c1nc2cccnc2c(=O)[nH]1
180 to 181	CC(C)c1nnnn1-c1cc(C(=O)O)cc(-c2ccc(Cl)cn2)c1
117 to 118	CCCn1cc(Cc2ccc(C(=O)O)cc2OC)c2cc(CCCC(=O)N(C)C)ccc21
166 to 168	Cc1cc(C)nc(NC(=O)NS(=O)(=O)c2ccccc2C(=O)N(C)C)n1
166 to 167	O=C(O)CC(Br)c1ccc([N+](=O)[O-])cc1 (stereo not given)

SMILES	melting point [°C]
CC[C@H]1[C@@H](O)CC(=O)N1c1ccc(C#N)c(Cl)c1F	142 to 144
O=C1c2ccccc2-n2cncc2[C@@H]2CCCN12	211 to 212
C=CCN1CCc2cc(OC)c(O)c3c2C1Cc1cc(O)c(OC)cc1-3 (single isomer, unassigned; (+))	161 to 171
O=c1[nH]c(N[N+](=O)[O-])ncc1Cc1cccc2ccccc12	226 to 227
CC(C)Oc1cccc(-n2c(=S)[nH]c3ccccc3c2=O)c1	288 to 290
CC1CC(=O)NN=C1c1ccc(Nc2ccccc2)nc1 (stereo not given)	202 to 204
